We go through one molecule from US20260207570A1, “OPTIMIZED DOSING OF LERIGLITAZONE” (MINORYX THERAPEUTICS S.L., priority 2022, published 2026).

Series [1] concerns the target T1, CYP3A4 (Homo sapiens, UniProt P08684). Put plainly: CYP3A4 contribution to clearance (fm, CLint) for the PBPK model. The source says:
(§1) CYP2C8 and CYP3A4 were identified in vitro as the major contributing enzymes of leriglitazone with CYP2C8 mostly responsible for the formation of the main metabolite M3. Kinetic parameters of human CYP2C8 and CYP3A4 mediated metabolism of leriglitazone were studied in in vitro studies using recombinant CYP3A4 and CYP2C8 enzymes (ADMESCOPE, Finland). […] As the disappearance of leriglitazone was very slow especially at high initial concentrations, the accuracy of the fit was not as good as based on M3 formation. […] Thus, it was not possible to fit the kinetic parameters Km and Vmax.

Series [2] in a line: PBPK model input parameters: blood and plasma binding. The class given is in vitro ADME, human.
The target of series [3] is T1, CYP3A4. Put plainly: Metabolism kinetics with recombinant CYP3A4. Conditions: used initial concentrations; Km and Vmax could not be fitted. More on the design: purchased ADMESCOPE, Finland. The class given is in vitro ADME.
Excerpt: as §1

The target in another series is T2, CYP2C8 (Homo sapiens, UniProt P10632).
T2 sequence (P10632 1-490): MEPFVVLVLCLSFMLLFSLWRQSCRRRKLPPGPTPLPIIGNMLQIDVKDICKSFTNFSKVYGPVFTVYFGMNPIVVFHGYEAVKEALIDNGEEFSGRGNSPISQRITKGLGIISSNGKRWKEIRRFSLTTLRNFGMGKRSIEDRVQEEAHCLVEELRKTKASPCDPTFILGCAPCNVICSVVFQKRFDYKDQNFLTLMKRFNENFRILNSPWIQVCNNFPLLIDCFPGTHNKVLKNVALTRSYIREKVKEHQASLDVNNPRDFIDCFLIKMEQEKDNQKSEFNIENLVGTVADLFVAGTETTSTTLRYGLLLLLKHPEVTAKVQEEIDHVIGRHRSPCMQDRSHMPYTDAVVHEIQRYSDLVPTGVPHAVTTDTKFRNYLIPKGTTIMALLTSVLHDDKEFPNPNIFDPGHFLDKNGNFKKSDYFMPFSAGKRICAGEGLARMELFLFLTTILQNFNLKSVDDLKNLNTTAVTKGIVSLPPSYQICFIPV
Put plainly: Metabolism kinetics with recombinant CYP2C8. The class given is in vitro ADME. Conditions: therapeutic range, up to 30 μM initial incubation concentration.
Excerpt: as §1

Series [4] can be described thus: Single dose neuro-pk study in rats. Type of series: in vivo. The note with it: rat. As to the method:
The ratio of unbound leriglitazone concentration in brain to unbound concentration in plasma (Kpu,u; Cb,u/Cp,u) was calculated dividing the unbound CSF Cmax by the unbound plasma Cmax. Fractions unbound in plasma (fu,p) to obtain the unbound Cmax values were already reported. Rodriguez-Pascau, L. et al., Sci. Transl. Med. 13, eabc0555 (2021).
In a single dose neuro-pk study in rats, at the efficacious dose of 17 mg/kg, the unbound brain concentration of leriglitazone was 175 ng/ml similar to the measured CSF concentration of 274 ng/ml (FIG. 7). Given the validity of CSF as a surrogate marker for brain unbound concentration was proven in rats, CSF levels of leriglitazone were measured in Phase 1 study and confirmed to be similar as in rodents. Unbound brain to plasma ratio (Kpu,u) of leriglitazone as a measure of brain distribution of free drug was 0.55 in humans and 0.25 in rats (Table 7).

Series [5] is described as follows: PBPK model input parameters: physicochemical.
Series [6] in a line: Adult PBPK model (Simcyp) development, simulation and verification. More on the design: species or system human. The source says: A PBPK model for leriglitazone HCl was developed with the Simcyp Population-Based Simulator Version 17 release 1.
A first-order absorption model with inputs based on clinical data was used to describe the absorption kinetics of the drug. Dose-dependent ka values were estimated from phase 1 SAD data and were incorporated to account for the less than dose proportional increase in the Cmax of leriglitazone as well as the negative food effect on the Cmax (Table 2).
A global scalar of 0.7 was applied to match the estimated value. The full PBPK model was applied in all simulations of the plasma concentration-time profiles of the drug in order to recover the shape of the concentration-time profiles.
Predictions of plasma concentration-time profiles and clearance were performed in the Simcyp Simulator using the default Sim-Healthy volunteer population, whose parameter values have been described previously. Howgate, E. M., et al., Xenobiotica Fate Foreign Compd. Biol. Syst. 36, 473-497 (2006); Inoue, S. et al., Xenobiotica Fate Foreign Compd. Biol. Syst. 36, 499-513 (2006). The trial design used for simulation of the plasma concentration-time profile of a single dose of leriglitazone in fasted and fed subjects was based on the phase 1 SAD results. Concentration-time profiles, using 10 virtual trials of 6 subjects (all male) aged 21 to 50 years receiving a single oral dose of 30, 90 or 270 mg under the fasted conditions and a single oral dose of 90 or 270 mg under fed conditions were simulated over a duration of 144 hours. Visual checks of the predicted concentration-time profiles were performed and the key PK parameters (AUC, Cmax and Tmax) were compared to those observed in the phase 1 study (Table 8).
The PBPK model was verified by comparing the predicted concentration-time profiles with the observed phase 1 MAD data. The trial design used for simulation was based on multiple doses of 135 mg or 270 mg in fed healthy subjects. […]

Where [7] appears, read: before accounting for biliary and renal clearance.

T1 sequence (P08684 whole entry): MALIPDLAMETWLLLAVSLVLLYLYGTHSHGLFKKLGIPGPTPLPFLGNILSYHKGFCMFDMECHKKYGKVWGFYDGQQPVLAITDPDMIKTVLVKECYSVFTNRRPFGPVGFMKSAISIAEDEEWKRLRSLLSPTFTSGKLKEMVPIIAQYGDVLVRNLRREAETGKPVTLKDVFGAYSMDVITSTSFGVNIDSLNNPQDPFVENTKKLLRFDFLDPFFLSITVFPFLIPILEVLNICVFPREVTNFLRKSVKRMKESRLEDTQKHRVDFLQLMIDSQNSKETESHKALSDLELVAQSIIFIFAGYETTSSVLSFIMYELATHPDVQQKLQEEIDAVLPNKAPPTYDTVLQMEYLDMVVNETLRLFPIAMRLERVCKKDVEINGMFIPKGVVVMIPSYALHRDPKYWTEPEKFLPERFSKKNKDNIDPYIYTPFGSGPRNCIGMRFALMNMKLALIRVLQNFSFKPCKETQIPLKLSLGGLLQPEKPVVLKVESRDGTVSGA

Consider `CC(O)c1ccc(CCOc2ccc(CC3SC(=O)NC3=O)cc2)nc1` (stereo not drawn) [Leriglitazone, 5-[[4-[2-[5-(1-hydroxyethyl)pyridin-2-yl]ethoxy]phenyl]methyl]-1,3-thiazolidine-2,4-dione], for which, at CYP3A4 [1] (PBPK model input, calculated from estimated fm and mean CL/F), the “CLint, CYP3A4” value was 0.0097 µL/min/pmol. The “share of metabolism, CYP3A4” value at CYP3A4 [1] (setting [7]) came to 30%. Also, in series [2], the “B:P” value is 0.73 and the fugut came to 1. This molecule also showed a fraction unbound in series [2] (human, plasma) of 0.04. The “saturation of metabolism by recombinant CYP3A4” value at CYP3A4 [3] is recorded as “did not saturate”. The “contribution of CYP2C8, fraction metabolized” value on CYP2C8 is “around 70%”. The Kp in series [4] (CSF and plasma (unbound), 17 mg/kg, unbound CSF Cmax / unbound plasma Cmax, read-out: Kpu, u based on CSF) came out at 0.25. Moreover, in series [4] (plasma, 17 mg/kg single dose, read-out: Total plasma AUC), the AUC was determined as 102 µg·h/mL. In addition, the Cmax in series [4] (plasma, 17 mg/kg single dose, read-out: Total plasma Cmax) turned out to be 21100 ng/mL. In series [4] (17 mg/kg single dose), the “CSF Cmax” value came out at 274 ng/mL, the “Total brain AUC” value worked out at 6.582 µg·h/mL and the “Total brain Cmax” value is 1337.6 ng/mL. In series [4] (17 mg/kg, unbound CSF Cmax / unbound plasma Cmax), the “Kpu, u based on CSF” value is reported as 0,25. In addition, the unbound brain concentration in series [4] (efficacious dose of 17 mg/kg, single dose) is 175 ng/mL. In addition, in series [5], the Compound type result was “Diprotic Base” and the logP amounted to 2.47. The pKa in series [5] (two values) came out at 4.97. In addition, in series [6] (PBPK model), the “renal clearance fraction (fe)” value is 5%. Also, the “CLint, additional” value in series [6] (PBPK model input) is 0.281 µL/min/mg. Besides, the “share of metabolism, undefined metabolism” value in series [6] (setting [7]) is 6%.
